Peptide text beside a SMILES is read from it. * marks the point of attachment. Cbz = O=C(OCc1ccccc1)*
How the values were obtained:
[1] = biological target: T1, FKBP L106P-YFP fusion protein (Homo sapiens, UniProt P62942, F37V); test: Shield1 dose-response stabilization of FKBP-YFP fusion, flow cytometry; type: cell-based
T1 construct: expressed in transfected cells
Procedure: (§1) The data for FIGS. 2A-2D are presented as the average mean fluorescence intensity (MFI)±SEM relative to that of the maximum fluorescence intensity observed for the individual mutant. Experiments were performed in triplicate. (FIG. 2A) Fluorescence of FKBP-YFP fusion proteins expressed in NIH3T3 cells as determined by flow cytometry in the absence of Shield1. (FIG. 2B) NIH3T3 cells stably expressing FKBP-YFP fusion proteins were treated with three-fold dilutions of Shield1 (1 μM to 0.1 nM) and the fluorescence was monitored by flow cytometry. (FIG. 2C) NIH3T3 cells stably expressing FKBP-YFP fusion proteins were either mock-treated (circles) or treated with 30 nM Shield1 (squares), 100 nM Shield1 (diamonds), 300 nM Shield1 (crosses), or 1 μM Shield1 (triangles). Fluorescence was monitored over time using flow cytometry. MFI was normalized to 100% of cells treated with 1 μM Shield1 at 24 hrs. (FIG. 2D) NIH3T3 cells stably expressing FKBP-YFP fusion proteins were treated with 1 μM Shield1 for 24 hours at which point the cells were washed with media to remove Shield1, and the decrease in fluorescence was monitored using flow cytometry.
(§2) Twenty-four hours prior to analysis, transduced NIH3T3 cells were plated at 1×10^5 cells per well of a 12-well plate and treated as described. Cells were removed from the plate using PBS+2 mM EDTA, washed once with PBS, and resuspended in 200 μl PBS. Cells were analyzed at the Stanford Shared FACS Facility using FlasherII with 10,000 events represented.
(§3) Each variant FKBP-derived, ligand-responsive destabilizing domain was separately transduced into NIH3T3 cells, and YFP fluorescence levels were measured in the absence of Shield1 (FIG. 2A). […] The most destabilizing variation, L106P, produced YFP fluorescence at a level of only 1-2% relative to the positive control. All FKBP-derived, ligand-responsive destabilizing domain variants produced increased fluorescence signal when incubated in the presence of Shield1 ([…]). […]

[2] = biological target: T2, FKBP V24A-YFP fusion protein (Homo sapiens, UniProt P62942, F37V/V25A); test: as above; type: cell-based; conditions: NIH3T3 cells stably expressing V24A FKBP-YFP; extracellular Shield1 giving 50% of maximum YFP signal; read-out: EC50 of stabilization (rescue) by Shield1
T2 construct: expressed in transfected cells; host or cells: NIH3T3 (retroviral transduction)
T2 sequence (P62942 2-108 V25A/F37V): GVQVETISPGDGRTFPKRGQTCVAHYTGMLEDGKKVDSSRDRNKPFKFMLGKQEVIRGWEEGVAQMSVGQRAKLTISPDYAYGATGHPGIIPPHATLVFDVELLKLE
Procedure: as §1, §2, §3

FKBP-YFP fusion proteins [3] = biological target: T3, FKBP-YFP fusion proteins (Homo sapiens, UniProt P62942, F37V); test: Kinetics of FKBP-YFP fluorescence upon addition of Shield1; type: cell-based; conditions: NIH3T3 cells transduced with L106P-YFP
T3 construct: expressed in transfected cells
T3 sequence (P62942 with tags, fused parts or gaps F37V): as the sequence (P62942 2-108 V25A/F37V) above, with A24V, L106P counted along it
Procedure: as §1
(§4) FIG. 8 is a graph showing the kinetics of FKBP-YFP fluorescence in cells upon addition of Shield1. NIH3T3 cells stably expressing the indicated FKBP-YFP fusions were treated with 1 μM Shield1, and increases in fluorescence were monitored over time using flow cytometry. Data are presented as the average mean fluorescence intensity (MFI)±SEM relative to that of the maximum fluorescence intensity observed for the individual variant. The experiment was performed in triplicate, and MFI was normalized to 100% at 24 hr.
(§5) In a kinetic study of NIH3T3 cells stably expressing each of the five FKBP-derived, ligand-responsive destabilizing domain variants, YFP fluorescence increased at approximately the same rate upon addition of Shield1, with maximum fluorescence achieved at 24 hours and stably maintained for at least an additional 48 hours without further addition of Shield1 (FIG. 2C). […]

FKBP-YFP fusion proteins [4] = test: as above; type: cell-based, human; conditions: NIH3T3 cells stably expressing FKBP-YFP variants
Procedure: as §1, §4, §5

[5] = test system: falcipain-2 fused to the F36V/L106P FKBP mutant; test: Conditional falcipain stabilization, swollen vacuole phenotype; type: cell-based, Plasmodium falciparum
Sequence of falcipain-2 fused to the F36V/L106P FKBP mutant (P62942 with tags, fused parts or gaps F37V limits assumed): as the sequence (P62942 2-108 V25A/F37V) above, with A24V, L106P counted along it
Description: In a related experiment, fusion proteins were made with falcipain-2, a cysteine protease. Knocking out the falcipain-2 gene causes vacuole swelling resulting from the decreased ability of the organisms to degrade hemoglobin. Fusion of falcipain-2 to the F36V/L106P FKBP mutant produced a conditional falcipain stabilization system.

YFP fusion protein = test: Immunoblot of YFP fusion protein in transfected Plasmodium; type: cell-based, Plasmodium falciparum
[6] = test system: FKBP-derived stability-affecting domain fused to the N-terminus of YFP; test: Time lapse fluorescence microscopy of parasitophorous vacuoles in infected HFF cells; type: cell-based, Toxoplasma gondii; conditions: T. gondii in HFF cells
Description: The fluorescence of parasitophorous vacuoles in infected cells was monitored by time lapse microscopy following addition (FIG. 6B) or removal of ligand (FIG. 6C). Background fluorescence is indicated.
Nucleotides expressing the fusion the fusion protein were introduced into T. gondii parasites, which were then used to infect HFF cells. The parasitophorous vacuoles in the infected cells were monitored by time lapse fluorescence microscopy following the addition of ligand (Shield1; FIG. 6B) or following the removal of ligand (FIG. 6C). The indicated control line corresponds to background fluorescence, while each of the other lines in the graphs correspond to individual infected cells.

[7] = test system: luciferase fused to FKBP-derived stability-affecting protein (F36V/L106P); test: Bioluminescence imaging of mice challenged with HCT116 tumor cells expressing luciferase-FKBP fusion; type: in vivo, SCID mice
Sequence of luciferase fused to FKBP-derived stability-affecting protein (F36V/L106P) (P62942 with tags, fused parts or gaps F37V limits assumed): as the sequence (P62942 2-108 V25A/F37V) above, with A24V, L106P counted along it
Description: FIGS. 7A and 7B are graphs showing the results of an experiments in which SCID mice were challenged with tumor cells genetically manipulated to express luciferase fused to a stability-affecting protein.
HCT116 cancer cells were transfected with a nucleic acids encoding the reporter gene luciferase fused to an FKBP-derived stability-affecting protein (F36V/L106P) mutant. Stable transformants were then selected and used to challenge SCID mice.
The results of an experiments in which SCID were challenged with tumor cells harboring nucleic acids encoding luciferase fused to an FKBP-derived, stability-affecting protein (F36V/L106P) are shown in FIGS. 7A and 7B. The mice were either untreated or treated with the indicated amounts of ligand (Shield1) and bioluminescent signals were imaged over time as described (Lin, A. H., et al. (2005) J. Immunol. 175:547-54; Luo, J., et al. (2006) Proc. Nat'l. Acad. Sci. USA 103:18326-31; n=4-10 mice per treatment group).

[8] = test system: L106P-RhoA, L106P-Cdc42, Arl7-L106P in NIH3T3 cells; test: Ligand-dependent control of cell morphology by GTPase fusions, confocal microscopy; type: cell-based; conditions: Shield1-treated, mock-treated or Shield1 removed
Procedure: NIH3T3 cells stably expressing constitutively active GTPases fused to destabilizing domains were treated with 1 μM Shield1 for 24 hr. At this time, cells were washed once with PBS, plated at 8×10^3 cells in 4-well LabTek Chambered coverglass (NUNC) coated with 1 mg/ml poly-D-lysine (Sigma), along with mock-treated transduced cells and transduced cells treated with 1 μM Shield1. Cells were cultured for 24 hr in 10% DBS, then cultured in serum-free media for 12 hr. Cells were then washed with PBS, fixed in 4% paraformaldehyde for 15 min, permeabilized in 0.2% Triton X-100 for 5 min, stained with 1 μg/ml Alexa Fluor 488-conjugated phalloidin (Invitrogen; A12379) in PBS for 20 min, and washed with PBS. Fixed cells were imaged using a Bio-Rad Radiance 2100 confocal microscope.
Expression of constitutively active small GTPases causes well-characterized changes in cellular morphology (Heo and Meyer, 2003). To determine if FKBP-derived destabilizing domains, in combination with Shield1, could affect cell morphology by modulating GTPases levels, several small GTPases (i.e., RhoA, Cdc42, or Arl7) were fused to the destabilizing domains (FIGS. 4A and 4B). NIH3T3 cells were individually transduced with the L106P-RhoA, L106P-Cdc42, or Arl7-L106P (note arrangement of fusions), and then mock-treated or treated with Shield1, and visualized using confocal microscopy (not shown). […]

[9] = test system: FKBP variant fusions to proteins of interest in NIH3T3 cells; test: Immunoblot of proteins of interest fused to FKBP destabilizing domains, mock or 1 μM Shield1; type: cell-based
Procedure: (FIG. 4A) FKBP variants F15S and L106P were fused to the N-termini of several different proteins and transduced into NIH3T3 cells. Cell populations stably expressing the fusions were then either mock-treated or treated with 1 μM Shield1, and cell lysates were subjected to immunoblot analysis using antibodies specific for the protein of interest. Endogenous proteins served as loading controls (when detected) and Hsp90 served as a loading control otherwise. (FIG. 4B) FKBP variants D100G and L106P were fused to the C-termini of several different proteins of interest and treated as above.
An additional example is CD8α, a transmembrane glycoprotein found on the surface of T cells, which was able to be detected on the surface of cells by flow cytometry (FIG. 5), in a Shield1-dependent manner. […] Here, NIH3T3 cells stably expressing the fusion proteins were divided into three pools (groups). The first group (−) was mock-treated, the second group (+) was treated with 1 μM Shield1 for 24 hrs, and the third group (+/−) was treated with 1 μM Shield1 for 24 hrs, and then washed with media and cultured for 24 hr in the absence of Shield1. Live cells were then probed with a FITC-conjugated anti-CD8α antibody and assayed by flow cytometry. Data are presented as the average mean fluorescence intensity±SEM from an experiment performed in triplicate.

FKBP F36V variant = FKBP F36V variant (Homo sapiens, UniProt P62942, F37V); conditions: Clackson et al. 1998; cited from earlier work
Sequence of FKBP F36V variant (P62942 2-108 F37V limits assumed): as the sequence (P62942 2-108 V25A/F37V) above, with A24V counted along it

proteasome = test: Immunoblot of F15S-YFP and L106P-YFP after Shield1 withdrawal with proteasome inhibitors; type: cell-based; conditions: 10 μM, 4 hrs, F15S-YFP and L106P-YFP in NIH3T3
Procedure: Immunoblot analysis was performed using an anti-YFP antibody.
The mechanism of degradation was examined for the F15S and L106P variants. Since the ubiquitin-proteasome system is a major mediator of intracellular protein degradation (Pickart, 2004), the cells expressing either the FKBP-derived, ligand-responsive destabilizing domain variants F15S or L106P were incubated with MG132 (FIG. 2F) or lactacystin (FIG. 9), which inhibit ubiquitin-proteasome-mediated protein degradation.

T1 sequence (P62942 with tags, fused parts or gaps F37V): as the sequence (P62942 2-108 V25A/F37V) above, with A24V, L106P counted along it

Compound	L106P-YFP stabilization upon addition of Shield1 ([1]; 1 μM Shield1)	EC50 ([1]; NIH3T3 cells stably expressing L106P FKBP-YFP) [nM]	EC50 [2] [nM]	time within which YFP expression is observed after Shield1 treatment (FKBP-YFP fusion proteins [3]) [min]	additional time maximum fluorescence is stably maintained without further addition of Shield1 (FKBP-YFP fusion proteins [4]) [h]	time at which maximum fluorescence is achieved after addition of Shield1 (FKBP-YFP fusion proteins [4]) [h]	organisms with swollen vacuole phenotype, presence of ligand compared to absence [5]	levels of YFP fusion protein in the presence of ligand (YFP fusion protein)	levels of YFP on addition / removal of ligand [6]	effect of repeated administration of the ligand ([7]; 10 mg/kg Shield1 every 48 hours)	time of peak luminescence following a single injection of ligand ([7]; SCID mice, HCT116 luciferase-FKBP F36V/L106P tumors)	dependence of luminescence on ligand dose ([7]; SCID mice, single injection)	percentage of cells displaying the predicted morphology (penetrance) [8] [%]	Shield1-dependent stability of fusion proteins [9]	binding to F36V variant compared to wild-type FKBP (FKBP F36V variant)	effect on degradation of variant FKBP fusion proteins following withdrawal of Shield1 (proteasome)
1-[2-(3,4,5-trimethoxy-phenyl)-butyryl]-piperazine-2-carboxylic acid 3-(3,4-dimethoxy-phenyl)-1-[3-(2-morpholin-4-yl-ethoxy)-phenyl]-propyl ester [Shield1]	fully stabilized	~100	~5	≤ 15	≥ 48	24	More than 5 times	greatly increased	levels of YFP increase in the presence of ligand and decrease in the absence of ligand	continued luciferase stabilization	about 10 hours	dependent on ligand dose	> 90	Shield1-dependent stability	about 1,000 fold	
CC(C)C[C@@H](C=O)NC(=O)[C@H](CC(C)C)NC(=O)[C@H](CC(C)C)NC(=O)OCc1ccccc1 [MG132] (Cbz-Leu-Leu-Leu-aldehyde)																inhibited degradation
CC(=O)N[C@@H](CSC(=O)[C@]1([C@@H](O)C(C)C)NC(=O)[C@H](C)[C@@H]1O)C(=O)O [lactacystin]																inhibited degradation
